The values that follow come from patent US9162979B2, “1,5-Diary1-2-alkylpyrrole-3-substituted nitro esters, selective COX-2 inhibitors and nitric oxide donors” (ROTTAPHARM BIOTECH S.R.L., priority 2010, dated 2015).

One data set deals with COX-2 (Mus musculus (Mouse), UniProt Q05769). As to the kind of experiment: Evaluation of COX-2 activity: PGE2 production in LPS-stimulated J774 cells. Type of data set: cell-based, murine. To be noted: J774 cells stimulated 24 hours with LPS 10 μg/mL; PGE2 by radio-immunological assay; read-out: Cyclooxygenase inhibition COX-2 IC50. As to the method:
The murine monocyte/macrophage cell line J774 is grown in Dulbecco's modified Eagle's medium (DMEM), enriched with glutamine (2 mM), HEPES (25 mM), penicillin (100 u/mL), streptomycin (100 μg/mL), 10% of fetal bovine serum (FBS) and 1.2% of sodium pyruvate. […] Just before the experiments, the culture medium is replaced with fresh medium without FBS to avoid interference during the radio-immunological phase and the cells are stimulated as described below.
The supernatants are collected for evaluating, by means of radio-immunological assays, the amount of PGE2 produced.
In each group of experiments, wells were used in triplicate for the different treatment conditions. […] The data were evaluated using the sigmoidal dose-response equation (variable slope) (GraphPad software). IC50 and the 95% precision intervals were calculated with the program GraphPad Instat (GraphPad software).

Data set [1] relates to isolated rings of thoracic aorta. As to the kind of experiment: Evaluation of release of NO: vasorelaxing activity on endothelium-denuded aortic rings contracted with KCl. Details: species or system rat. Particulars: for IC50 / Emax: Rattus norvegicus; for IC50: read-out: NO release properties pIC50 (vasorelaxing potency) (converted); for Emax: relative to contractile tone induced by 20 mM KCl, 1 nM-10 μM, read-out: NO release properties Emax (maximum vasorelaxing effect); for vasorelaxing effect in the presence of ODQ: ODQ 1 μM, guanylate cyclase inhibitor. As to the method:
The activity of the compounds was evaluated on isolated rings of thoracic aorta of normotensive male Wistar rats (250-350 g). After light anaesthesia with ether, the rats were sacrificed by cervical dislocation and exsanguination. The aortas were immediately excised, extraneous tissues were removed and the endothelial layer was removed by gently rubbing the surface with a hypodermic needle. Rings of aorta with a width of 5 mm were suspended, with a preload of 2 g, in 20-ml organ baths, containing a solution of “Tyrode” (composition of the saline solution in mM: NaCl 136.8; KCl 2.95; CaCl2 1.80; MgSO4 1.05; NaH2PO4 0.41; NaHCO3 11.9; glucose 5.5), thermostatically controlled at 37° C. and kept in an atmosphere of O2 (95%) and CO2 (5%). […] were recorded by means of an isometric transducer (FTO3 Erba), connected to a microdynamometer (Buxco Electronics).
60 minutes after preparation, removal of the endothelium was confirmed by acetylcholine (ACH) (10 μM) treatment of the vascular rings pre-contracted with KCl (20 mM). Relaxation of less than 10% of the contraction induced by KCl was considered as representative of acceptable removal of the endothelial layer, whereas organs displaying relaxation ≧10% were discarded. 40 minutes after confirmation of complete removal of the endothelium, the aortas were contracted by treatment with a single dose of KCl (20 mM) and after the contraction reached a stable plateau, increasing cumulative concentrations (with progressive increments of 3 times) of the test compounds (1 nM-10 μM) were added. It was found from preliminary experiments that the contraction induced by KCl (20 mM) remained stable in a tonic state for at least 40 minutes. The same experiments were performed in the presence of a well-known inhibitor of guanylate cyclase: ODQ 1 μM, which was incubated in aorta preparations after confirmation of removal of the endothelium.
Analysis of the results. The vasorelaxing activity was evaluated as a percentage (%) relative to the contractile tone induced by 20 mM KCl. The pharmacodynamic efficacy parameter (Emax) corresponds to the maximum vasorelaxing effect induced by the molecule tested, expressed as percentage relative to the contractile tone induced by 20 mM KCl. When the limit concentration of 10 μM (the highest concentration administered) of the test compounds has not reached the maximum effect, the efficacy parameter (Emax) corresponds to the vasorelaxing effect induced by the limit concentration (expressed as percentage relative to the contractile tone induced by 20 mM KCl). The pharmacodynamic parameter of potency of the compounds was expressed as pIC50 calculated as the negative logarithm of the molar concentration of test compound that reduces the contractile tone induced by 20 mM KCl by half. […] The parameters of efficacy and potency were expressed as mean±standard error, for 5-10 experiments. The experimental data were analysed by the program GraphPad Prism 3.0.

Data set [2] deals with mouse abdominal contraction (writhing) induced by acetic acid. In words: Abdominal constriction test induced by acetic acid. The data set is classed as in vivo. As to the method: Male Swiss albino mice (23-25 g) and Wistar rats (150-200 g) were used.
The antinociceptive activity was determined by the mouse abdominal contraction test using acetic acid (0.6%), which induces writhing, according to Koster's method (Fed. Proc., 1959, 18, 412-418). The number of stretching movements was counted for 10 minutes, starting 5 minutes after injection of acetic acid. The results relating to analgesic activity in the abdominal constriction test with representative compounds of the invention are shown in Table 10.
The test was carried out using 10 animals in the treated group and 20 in the control group (CMC); all the compounds were administered per os with the exception of the compound of Example 8, which was administered i.p.

Another data set has as its system rat liver homogenate. In words: Evaluation of release of nitrites in hepatic homogenate. Particulars: nitrite after 4 hours, 1 mM, 37° C., as percentage of SNP.
[3] abbreviates: concentration reducing contractile tone induced by 20 mM KCl by half.

Sequence of COX-2 (Q05769 18-604): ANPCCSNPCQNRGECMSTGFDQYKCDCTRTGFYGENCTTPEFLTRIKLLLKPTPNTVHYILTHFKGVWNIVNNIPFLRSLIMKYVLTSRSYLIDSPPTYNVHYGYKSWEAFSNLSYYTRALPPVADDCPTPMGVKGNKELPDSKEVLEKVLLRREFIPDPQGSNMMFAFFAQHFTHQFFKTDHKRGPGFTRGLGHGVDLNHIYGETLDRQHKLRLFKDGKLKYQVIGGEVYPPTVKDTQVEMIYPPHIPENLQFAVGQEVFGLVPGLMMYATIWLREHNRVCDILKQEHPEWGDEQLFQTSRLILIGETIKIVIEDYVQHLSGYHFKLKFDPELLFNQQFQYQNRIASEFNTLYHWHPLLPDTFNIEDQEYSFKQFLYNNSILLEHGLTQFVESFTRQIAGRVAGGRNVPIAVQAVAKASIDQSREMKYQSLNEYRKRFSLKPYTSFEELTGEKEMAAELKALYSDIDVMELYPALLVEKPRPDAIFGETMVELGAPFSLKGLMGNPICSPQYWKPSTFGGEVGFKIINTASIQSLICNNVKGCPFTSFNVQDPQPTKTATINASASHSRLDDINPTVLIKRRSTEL
Excerpt for rat liver homogenate: By evaluating the time-dependent increase in nitrite concentrations in the liver homogenate, it was possible to extrapolate two descriptive parameters:
Time (in minutes) required for an amount of nitrite to be released by the test compound equal to half its maximum release.

For orientation: Emax means the greatest response seen or fitted, relative to the assay's reference. With `Cc1c(C(N)C(=O)OCCO[N+](=O)[O-])cc(-c2ccc(S(C)(=O)=O)cc2)n1-c1ccc(F)cc1` (racemic) [Example 16, (R,S)-2-(Nitrooxy)ethyl-[2-amino-2-[1-(4-fluorophenyl)-2-methyl-5-(4-methylsulphonylphenyl)-1H-pyrrol-3-yl]]-acetate], the IC50 on COX-2 is 0.74 µM; in data set [1] (setting [3]), 1.12 µM. Besides, in data set [1], the Emax amounted to 80 ± 7%. This molecule also returned a N writhes in data set [2] (40 mg/kg per os) of 24.9 ± 3.0.
As for `Cc1c(C(N)C(=O)OCCCO[N+](=O)[O-])cc(-c2ccc(S(C)(=O)=O)cc2)n1-c1ccc(F)cc1` (racemic) [Example 18, (R,S)-3-(Nitrooxy)propyl-[2-amino-2-[1-(4-fluorophenyl)-2-methyl-5-(4-methylsulphonylphenyl)-1H-pyrrol-3-yl]]-acetate], the figures for the IC50 (at COX-2; in data set [1] (setting [3])) were 0.82 µM and 2.19 µM, respectively. In addition, the “vasorelaxing effect in the presence of ODQ” value in data set [1] is given as “not fully antagonized by ODQ”. The Emax in data set [1] is 84 ± 2%. Further, the N writhes in data set [2] (3 mg/kg per os) is recorded as 26.9 ± 2.6; in data set [2] (10 mg/kg per os) it was 21.3 ± 2.5; in data set [2] (20 mg/kg per os), 18.1 ± 3.0; in data set [2] (40 mg/kg per os), 13.5 ± 2.8.
What is called melting point is the temperature of the solid-liquid transition. In turn, `Cc1c(C(N)C(=O)OCCCCO[N+](=O)[O-])cc(-c2ccc(S(C)(=O)=O)cc2)n1-c1ccc(F)cc1` (racemic) [Example 20, (R,S)-4-(Nitrooxy)butyl-[2-amino-2-[1-(4-fluorophenyl)-2-methyl-5-(4-methylsulphonylphenyl)-1H-pyrrol-3-yl]]-acetate] came in with a melting point of 108 °C. Besides, the IC50 on COX-2 came to 1 µM. In data set [1], the “vasorelaxing effect in the presence of ODQ” value is given as “not fully antagonized by ODQ” and the Emax is 93 ± 1%. Also, in data set [1] (setting [3]), the IC50 is 1.55 µM. Also, the N writhes in data set [2] (40 mg/kg per os) turned out to be 19.8 ± 2.4.
Turning to `Cc1c(CC(=O)NC(CCO[N+](=O)[O-])C(=O)O)cc(-c2ccc(S(C)(=O)=O)cc2)n1-c1ccc(F)cc1` (racemic) [Example 32, (R,S)-4-(Nitroxy)-2-[[1-(4-fluorophenyl)-2-methyl-5-(4-methylsulphonylphenyl)-1H-pyrrol-3-yl]acetamido]butanoic Acid], the IC50 at COX-2 is 1.6 µM. Further, the maximal response (Emax) in data set [1] was 42 ± 9%. Besides, the values for the N writhes in data set [2] (10 mg/kg per os) and in data set [2] (20 mg/kg per os) were 22.8 ± 3.0 and 14.6 ± 2.7, respectively.
`COc1ccc(-n2c(-c3ccc(S(C)(=O)=O)cc3)cc(CC(=O)OCCO[N+](=O)[O-])c2C)cc1` [Example 4, 2-(Nitrooxy)ethyl-[1-(4-methoxy-phenyl)-2-methyl-5-(4-methylsulphonylphenyl)-1H-pyrrol-3-yl]-acetate] showed a melting point of 122 °C. Besides, on COX-2, the IC50 worked out at 0.17 µM. In addition, in data set [1] (setting [3]), the IC50 is 0.178 µM. The Emax in data set [1] was found to be 77 ± 2%. For the same molecule, the N writhes in data set [2] (40 mg/kg per os) stood at 17.7 ± 2.3.
Consider `Cc1c(CC(=O)OCCCO[N+](=O)[O-])cc(-c2ccc(S(C)(=O)=O)cc2)n1-c1cccc(F)c1` [Example 8, 3-(Nitroxy)propyl-[1-(3-fluorophenyl)-2-methyl-5-(4-methylsulphonylphenyl)-1H-pyrrol-3-yl]-acetate], for which the IC50 on COX-2 is 0.007 µM; in data set [1] (setting [3]), 0.162 µM. Also, the Emax in data set [1] was 82 ± 1%. The N writhes in data set [2] (20 mg/kg i.p.) is on record as 16.9 ± 2.4.
As for `COc1ccc(-n2c(-c3ccc(S(C)(=O)=O)cc3)cc(CC(=O)OCCCO[N+](=O)[O-])c2C)cc1` [Example 9, 3-(Nitroxy)propyl-[1-(4-methoxyphenyl)-2-methyl-5-(4-methylsulphonylphenyl)-1H-pyrrol-3-yl]-acetate], the melting point was 115 °C. For the same molecule, the IC50 on COX-2 came to 0.002 µM. The Emax in data set [1] worked out at 41 ± 11%. For the same molecule, the N writhes in data set [2] (20 mg/kg per os) is reported as 18.4 ± 3.1.
As to `Cc1c(CC(=O)OCCCCO[N+](=O)[O-])cc(-c2ccc(S(C)(=O)=O)cc2)n1-c1cccc(F)c1` [Example 12, 4-(Nitrooxy)butyl-2-[1-(3-fluorophenyl)-2-methyl-5-(4-methylsulphonylphenyl)-1H-pyrrol-3-yl]acetate], the melting point was determined as 114 °C. In addition, the IC50 at COX-2 amounted to 0.069 µM. In data set [1] (setting [3]), the IC50 is 3.98 µM. Also, the Emax in data set [1] was 57 ± 14%. Also, the N writhes in data set [2] (40 mg/kg per os) stood at 25.1 ± 2.3.
In the case of `COc1ccc(-n2c(-c3ccc(S(C)(=O)=O)cc3)cc(CC(=O)OCCCCO)c2C)cc1` [Example 13-II, 4-(Hydroxy)butyl-2-[1-(4-methoxyphenyl)-2-methyl-5-(4-methylsulphonylphenyl)-1H-pyrrol-3-yl]acetate], on COX-2, the IC50 stood at 1.1 µM. Moreover, in data set [2] (40 mg/kg per os), the N writhes worked out at 14.7 ± 2.5.
`Cc1c(CC(=O)NCCO[N+](=O)[O-])cc(-c2ccc(S(C)(=O)=O)cc2)n1-c1ccc(F)cc1` [Example 23, N-[(2-Nitroxy)ethyl]-2-[1-(4-fluorophenyl)-2-methyl-5-(4-methylsulphonylphenyl)-1H-pyrrol-3-yl]acetamide] came in with a melting point of 135 °C. At COX-2, the IC50 was 0.24 µM. Moreover, in data set [1] (setting [3]), the IC50 was 4.9 µM and the “NO release properties pIC50 (vasorelaxing potency)” value worked out at 5.31 ± 0.05. The Emax in data set [1] was 68 ± 6%.
For `Cc1c(CCOCCO)cc(-c2ccc(S(C)(=O)=O)cc2)n1-c1cccc(F)c1` [Example 38-II], the IC50 on COX-2 was found to be 0.046 µM. Further, the N writhes in data set [2] (20 mg/kg per os) turned out to be 26.8 ± 3.2; in data set [2] (40 mg/kg per os), 17.3 ± 3.5.
`Cc1c(CCOCCO)cc(-c2ccc(S(C)(=O)=O)cc2)n1-c1ccc(F)c(F)c1` [Example 39-II] yielded a melting point of 138 to 140 °C. In addition, on COX-2, the IC50 came out at 0.42 µM. In data set [2] (20 mg/kg per os), this molecule came in with a N writhes of 24.8 ± 3.0.
Molecule `Cc1c(CCOCCCO)cc(-c2ccc(S(C)(=O)=O)cc2)n1-c1ccc(F)cc1` [Example 41-II, 3-[2-[2-(1-(4-Fluorophenyl)-2-methyl-5-(4-methylsulphonylphenyl)-1H-pyrrol-3-yl)]ethoxy]propanol] displayed a melting point of 100 to 102 °C. Moreover, the IC50 on COX-2 was 0.94 µM.
Regarding `O=C(NCCO[N+](=O)[O-])c1cccnc1` [Nicorandil, reference compound], the “Maximum release (%)” value in the data set on rat liver homogenate was determined as 18 ± 2%.
